Six molecules from the supplement of paper PMC4862054 can be followed below.

Common to all, as to conditions: incubation time: 72 h
In assay [1] the test system is MDA-MB-231. Nature of the assay: drug sensitivity score (DSS), CellTiter-Glo (DSS (AUC-based score)); higher = stronger drug effect (viability inhibition or cytotoxicity); extreme values may be limits of the assay. The method, boiled down:
(§1)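 Each compound occupied 5 concentrations in 10-fold steps over its own 10,000-fold range in 384-well plates, into which breast cancer cell lines were seeded as 20 µl suspension. Following 72 h of incubation, CellTox Green fluorescence (485/520 nm) was measured, and CellTiter-Glo luminescence was measured after 10 min at room temperature. Plates were individually normalised to 0.1 % DMSO and a positive kill control. From the area under the fitted dose-response curve, a drug sensitivity score was calculated.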

For the next assay, the system named is MCF-10A. The assay is described as above. In outline:
as §1

Assay [2] has as its system HCC1143. Described as above. The method, boiled down:
as §1

Assay [3] relates to HDQ-P1. The description is as above. In outline: as §1
Assay [4] has as its system HCC1937. Described as above. The method, boiled down:
as §1

For assay [5], the system named is BT-474. The assay is described as above. The method, boiled down: as §1
In another assay the test system is SK-BR-3. The experiment in a line: normalised viability (% of control), CellTiter-Blue; higher = more viable cells (about 100 = DMSO control). The method, boiled down:
(§2)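 Plates were quality-checked by Z'-factor and normalised to vehicle (100) and a positive kill control (0). The underlying assay incubated breast cancer cell lines for 72 h on 384-well plates with compound, then added 2.5 µl CellTiter-Blue for 2 h at 37 °C and read at 560/590 nm. The value is normalised viability at a single listed concentration of the series.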
Background: Resazurin is reduced to fluorescent resorufin, in cell work by metabolically active cells.

A further assay concerns BT-549. The description is as above. The method, boiled down:
as §2

Assay [6] relates to MDA-MB-231. The assay is described as above. In outline:
as §2

Another assay has as its system CAL-120. The assay is described as above. In outline:
as §2

The next assay concerns Hs578T. The description is as above. The method, boiled down:
as §2

Another assay concerns CAL-148. The description is as above. The method, boiled down:
as §2

The test system of another assay is MDA-MB-436. The assay is described as above. In outline:
as §2

Assay [7] relates to HCC1143. Described as above. In outline:
as §2

Assay [8] has as its system HDQ-P1. Described as above. In outline: as §2
For another assay, the system named is CAL-51. Described as above. The method, boiled down:
as §2

Assay [9] concerns HCC1937. The description is as above. In outline: as §2
The subject of the next assay is MFM-223. The description is as above. The method, boiled down: as §2
For another assay, the system named is DU-4475. Described as above. The method, boiled down: as §2
Another assay concerns MDA-MB-453. The description is as above. In outline:
as §2

Assay [10] relates to BT-474. The description is as above. In outline: as §2
The subject of the next assay is CAL-85-1. The description is as above. In outline: as §2
The test system of another assay is HCC1599. The description is as above. The method, boiled down: as §2
In a further assay the test system is MDA-MB-468. Described as above. In outline: as §2

Consider `CC(C)NC[C@@H](C(=O)N1CCN(c2ncnc3c2[C@H](C)C[C@H]3O)CC1)c1ccc(Cl)cc1` [GDC-0068], for which the drug sensitivity score in the assay with MDA-MB-231 [1] was 0; in the assay with MCF-10A it was 3.41; with HCC1143 [2], 2.35; in the assay with HDQ-P1 [3], 7.19; in the assay with HCC1937 [4], 3.46; with BT-474 [5], 0.706.

Turning to `CCCc1cc(C)[nH]c(=O)c1CNC(=O)c1cc(-c2ccnc(N3CCN(C)CC3)c2)cc2c1cnn2C(C)C` [GSK343], the drug sensitivity score in the assay on MDA-MB-231 [1] was 4.65; in the assay with MCF-10A, 0; in the assay on HCC1143 [2] it was 0; in the assay on HDQ-P1 [3], 0; in the assay with HCC1937 [4] it was 0; in the assay with BT-474 [5], 3.79.

For `COc1cc2c(cc1-c1c(C)noc1C)ncc1[nH]c(=O)n([C@H](C)c3ccccn3)c12` [I-BET151], the drug sensitivity score was 2.63 with MDA-MB-231 [1]; 5.37 in the assay on MCF-10A; 1.94 with HCC1143 [2]; 3.02 in the assay on HDQ-P1 [3]; 2.32 with HCC1937 [4]; 3.77 in the assay on BT-474 [5].

`CC(C)n1nc(-c2ccc3oc(N)nc3c2)c2c(N)ncnc21` [INK128]: the drug sensitivity score in the assay with MDA-MB-231 [1] was determined as 11.2; in the assay on MCF-10A it was 12; in the assay on HCC1143 [2] it was 13; with HDQ-P1 [3], 13.5; with HCC1937 [4], 8.72; in the assay with BT-474 [5] it was 11.5.

As to `Cc1c(C(=O)Nc2ccc(N3C[C@@H](C)O[C@@H](C)C3)nc2)cccc1-c1ccc(OC(F)(F)F)cc1` [NVP-LDE225], the normalised viability was determined as 104% in the assay on SK-BR-3 (10 nM); 102% in the assay on SK-BR-3 (1000 nM); 111% in the assay on SK-BR-3 (10000 nM); 113% in the assay with BT-549 (10 nM); 96% in the assay on BT-549 (1000 nM); 97.3% in the assay on BT-549 (10000 nM). Further, the normalised viability in the assay with MDA-MB-231 [6] (10 nM) was found to be 121%; in the assay on MDA-MB-231 [6] (1000 nM), 102%; in the assay with MDA-MB-231 [6] (10000 nM), 82.9%; with CAL-120 (10 nM) it was 99.9%; in the assay with CAL-120 (1000 nM), 92.7%; in the assay on CAL-120 (10000 nM), 97%. In addition, the normalised viability in the assay with Hs578T (10 nM) stood at 118%; with Hs578T (1000 nM), 107%; in the assay on Hs578T (10000 nM) it was 87%; in the assay with CAL-148 (3 nM), 99.6%; in the assay with CAL-148 (30 nM), 101%; in the assay with CAL-148 (100 nM), 106%. Also, the normalised viability in the assay with MDA-MB-436 (10 nM) is 83%; with MDA-MB-436 (1000 nM), 29.2%; in the assay on MDA-MB-436 (10000 nM), 67.3%; in the assay with HCC1143 [7] (10 nM) it was 108%; in the assay on HCC1143 [7] (1000 nM), 102%; in the assay on HCC1143 [7] (10000 nM), 96.4%. In addition, the normalised viability in the assay with HDQ-P1 [8] (3 nM) came to 76.2%; in the assay on HDQ-P1 [8] (30 nM), 84%; in the assay with HDQ-P1 [8] (100 nM), 84.9%; with CAL-51 (3 nM), 105%; in the assay with CAL-51 (30 nM), 101%; in the assay on CAL-51 (100 nM), 101%. The normalised viability in the assay on HCC1937 [9] (10 nM) is 38.8%; in the assay on HCC1937 [9] (1000 nM), 92.7%; in the assay with HCC1937 [9] (10000 nM) it was 82.1%; in the assay on MFM-223 (10 nM) it was 93.5%; in the assay with MFM-223 (1000 nM) it was 93.8%; with MFM-223 (10000 nM) it was 88.2%. Moreover, the normalised viability in the assay on DU-4475 (3 nM) is 105%; with DU-4475 (30 nM) it was 112%; with DU-4475 (100 nM), 96%; in the assay on MDA-MB-453 (3 nM) it was 98.9%; in the assay with MDA-MB-453 (30 nM), 88.7%; in the assay with MDA-MB-453 (100 nM), 105%. Moreover, the normalised viability in the assay with BT-474 [10] (10 nM) stood at 96.5%; with BT-474 [10] (1000 nM), 101%; in the assay on BT-474 [10] (10000 nM) it was 63.5%; with CAL-85-1 (3 nM), 100%; in the assay on CAL-85-1 (30 nM), 86%; with CAL-85-1 (100 nM), 104%. The normalised viability in the assay with HCC1599 (10 nM) was found to be 105%; with HCC1599 (1000 nM), 90.5%; in the assay with HCC1599 (10000 nM), 102%; in the assay on MDA-MB-468 (10 nM) it was 109%; in the assay with MDA-MB-468 (1000 nM), 109%; in the assay on MDA-MB-468 (10000 nM), 91.9%.

Consider `CN1CCc2c(c3ccccc3n2Cc2ccc(C(=O)NO)cc2)C1` [Tubastatin A], for which the drug sensitivity score with MDA-MB-231 [1] worked out at 0; in the assay with MCF-10A it was 0; in the assay on HCC1143 [2] it was 2.45; in the assay with HDQ-P1 [3], 0; with HCC1937 [4] it was 1.2; with BT-474 [5], 0.
